Assay results as given in paper PMC8329280 (Scientific Reports, 2021).
Converted amounts (≈) assume the structure as drawn. “Also recorded” adds a separate entry of the source. Starred links: 1 amine or outer side, 2 acyl side, 3 side chain; linkers in the order of their positions; H or OH if unused. Positions of bridges follow the written chain, without caps; N, C: chain ends. Non-standard residues stand in square brackets, D forms with d. Residues, ends and D or L forms follow the SMILES beside them. Chains are numbered I, II in the order given. X1 = O=C1CC([*:1])C(=O)N1CCOCCOCCOCCN1C(=O)CC([*:2])C1=O; Dopa = N[C@@H](Cc1ccc(O)c(O)c1)C(=O)O

Key:
[1] = test system: proteases produced by Staphylococcus aureus; assay: proteases produced by Staphylococcus aureus; conditions: cited from earlier work
CD14 cells = assay: Cytokine release assay, ELISA; assay type: cell-based, human; conditions: 24 h, cells from 2 patients
Procedure: Three types of immune cells were prepared from human monocytes provided from the EFS (Etablissement Français du Sang). Dendritic cells (DC1a), CD14 and macrophages were obtained after treatment of monocytes by cytokines according to the methods previously reported[31],[32] and the identification of the immune cells was validated by using flow cytometry analysis (Fluorescence Activated Cell Sorting, FACS).
(§1) The release of cytokines IL-6, IL-8, IL-10 and TNF-α induced after the treatment of immune cells by Cts was realized by the use of an automated ELISA immunoassay (Immulite One, Siemens la Garenne-Colombe, France) and with the Bio-Plex Multiplex Immunoassay system (Bio-Rad, Marnes-la-Coquette) for the treatment of Human Peripheral Blood Mononuclear Cells (PBMCs) by L-Ctl, D-Ctl, Ctl-C, D-Ctl-C and P3. PBMCs from healthy volunteers were obtained from the blood transfusion centre of Strasbourg (Etablissement Français du Sang, Strasbourg) and isolated by density gradient centrifugation using Lymphoprep (Stemcell Technologies). PMBC were then maintained in AIM V medium (Thermo Fisher Scientific, Waltham, MA, USA) at 37 °C in a 5% CO2 humidified incubator and treated for 24 h with 30 µM of each peptide (L-Ctl, D-Ctl, Ctl-C, D-Ctl-C and P3). Three technical replicates were performed for each condition. Supernatants were then filtered and assessed for cytokine dosage according to the manufacturer’s instructions.

Morganella morganii = assay type: cell-based
Procedure: (§2) The L- and D- forms of Ctl and also the corresponding L- and D-forms of the scramble peptides were tested by Atlangram (Nantes, France) against resistant Gram-negative bacteria (Escherichia coli, Klebsiella pneumoniae, Enterobacter cloacae, Enterobacter aerogenes, Serratia marcescens, Morganella morganii, Pseudomonas aeruginosa), MSSA, MRSA and yeast (C. albicans). The MICs were determined according to the CASFM/EUCAST 2018 (Comité de l’Antibiogramme de la Société Française de Microbiologie).

Escherichia coli = assay type: cell-based
Procedure: as §2

Candida albicans = assay type: cell-based
Procedure: as §2

MRSA = assay type: cell-based, Staphylococcus aureus
Procedure: as §2

[2] = test system: C. albicans (ATCC 10231TM); assay: Antimicrobial assay against C. albicans ATCC 10231; assay type: cell-based, Candida albicans; conditions: Sabouraud medium, 24 h at 37 °C, OD620nm, lowest concentration inhibiting 100% of growth
Procedure: Antimicrobial assays against C. albicans (ATCC 10231TM) were realized according to the method previously reported. C. albicans was cultured in Sabouraud medium (Sigma-Aldrich, Saint Louis, USA) supplemented with tetracycline (10 μg/mL) and cefotaxime (10 μg/mL) at 37 °C for 24 h. C. albicans (OD620nm = 0.001) were plated in 96-well plates and treated either with different concentrations of the peptides of interest, and/or with different concentrations of voriconazole (VCZ) (Sigma-Aldrich, Saint Louis, USA). As a positive control, cells were treated with 10 μg/mL VCZ. After 24 h incubation, yeast growth was assessed by optical density OD620nm using a spectrophotometer Multiskan EX Microplate Reader Lab (Thermo Fisher Scientific, Waltham, MA, USA).
The MIC of the antifungal agents is defined as the lowest concentration of drug able to inhibit 100% of the growth of C. albicans.

[3] = test system: Human Peripheral Blood Mononuclear Cells (PBMCs); assay: Cytokine release assay, Bio-Plex Multiplex Immunoassay; assay type: cell-based; conditions: 30 µM, 24 h, IL-6, IL-8, IL-10 pointed out, two healthy volunteers
Text: as §1

[4] = test system: methicillin sensitive S. aureus (MSSA, strain 49775); assay type: cell-based, Staphylococcus aureus; conditions: for MIC100 MSSA: MSSA strain 49775, MHB medium pH 7.4, 24 h at 37 °C, A620 nm, triplicates
Procedure: (§3) Antibacterial assays were realized to the method previously reported[22],[25]. S. aureus strains were pre-cultured for 20 h in aerobic conditions at 37 °C in Mueller–Hinton Broth (MHB) medium (Becton–Dickinson Microbiology Company, Sparks, USA) (pH 7.4). Bacteria were suspended at absorbance of 0.001 at 620 nm in the MHB medium. Antibacterial activity was tested for 24 h incubation at 37 °C with shaking by measuring the inhibition of bacterial growth. Ten µl of final volumes (10–200 µg/mL) of synthetic peptides were incubated in microtitration plates with 90 µl of a mid-logarithmic phase culture of bacteria, with a starting absorbance of 0.001 at 620 nm. A mixture of Tetracycline (10 mg/L) and Cefotaxime (0.1 mg/L) were used as positive controls. Microbial growth was assessed by the increase of absorbance after 24 h incubation at 37 °C. The A620 nm value of control cultures growing in the absence of peptide and antibiotics was defined as 100% growth. A620 nm value with the antibiotics (Tetracycline and Cefotaxime) was taken as 100% inhibition. Absence of bacterial growth was verified by agar plate spreading. Each assay was performed in triplicates. Data were shown as mean + /− standard deviation of three independent experiments; p < 0.05.

[5] = test system: methicillin resistant S. aureus (MRSA, strain S1); assay: Antibacterial growth inhibition assay, MRSA strain S1; assay type: cell-based, Staphylococcus aureus; conditions: MHB medium pH 7.4, 24 h at 37 °C, A620 nm, triplicates
Procedure: as §3

[6] = test system: Endoprotease Glu-C from S. aureus V8 (E.C. 3.4.21.19); assay: endoprotease Glu-C in 50 mM Tris–HCl pH 8.2 or PBS; conditions: S. aureus V8, 37 °C, up to 18 h
[7] = test system: Endoprotease Glu-C from S. aureus V8 (E.C. 3.4.21.19); assay: Endoprotease Glu-C in 50 mM Tris–HCl pH 8.2 or PBS; conditions: S. aureus V8 (enzyme source), 37 °C, up to 18 h
Citrobacter freundii = assay type: cell-based
Pseudomonas aeruginosa = assay type: cell-based
Procedure: as §2

Serratia marcescens = assay type: cell-based
Procedure: as §2

MSSA = assay type: cell-based, Staphylococcus aureus
Procedure: as §2

RSMRLSFRARGYGFR
not cleaved [1]: resistant to degradation by the proteases produced by Staphylococcus aureus

Catestatin [Cts]
production of IL-6 (CD14 cells; 15 µM, cell type not given): not modified
production of IL-10 (CD14 cells; 15 µM, cell type not given): not modified
production of TNF-α (CD14 cells; 15 µM, cell type not given): not modified
decrease of the amount of IL-8 released versus controls (without peptide) (CD14 cells; CD14, 15 µM): 26%

CSCC[C@@H](NC(=O)[C@@H](CO)NC(=O)[C@H](N)CCCNC(=N)N)C(=O)N[C@H](CCCNC(=N)N)C(=O)N[C@H](CC(C)C)C(=O)N[C@H](CO)C(=O)N[C@H](Cc1ccccc1)C(=O)N[C@H](CCCNC(=N)N)C(=O)N[C@H](C)C(=O)N[C@H](CCCNC(=N)N)C(=O)NCC(=O)N[C@H](Cc1ccc(O)cc1)C(=O)NCC(=O)N[C@H](Cc1ccccc1)C(=O)N[C@H](CCCNC(=N)N)C(=O)O [D-Ctl] (H-[dR][dS][dM][dR][dL][dS][dF][dR][dA][dR]G[dY]G[dF][dR]-OH)
MIC (Morganella morganii): > 128 µg/mL
MIC against several strains of E. coli (Escherichia coli): 8 to 32 µg/mL
MIC (Candida albicans): 256 µg/mL (≈ 138 µM)
MIC (MRSA): 64 µg/mL (≈ 34.4 µM)

CSCC[C@H](NC(=O)[C@H](CO)NC(=O)[C@@H](N)CCCNC(=N)N)C(=O)N[C@@H](CCCNC(=N)N)C(=O)N[C@@H](CC(C)C)C(=O)N[C@@H](CO)C(=O)N[C@@H](Cc1ccccc1)C(=O)N[C@@H](CCCNC(=N)N)C(=O)N[C@@H](C)C(=O)N[C@@H](CCCNC(=N)N)C(=O)NCC(=O)N[C@@H](Cc1ccc(O)cc1)C(=O)NCC(=O)N[C@@H](Cc1ccccc1)C(=O)N[C@@H](CCCNC(=N)N)C(=O)N[C@@H](CSC1CC(=O)N(CCOCCOCCOCCN2C(=O)CC(SC[C@H](NC(=O)[C@H](CCCNC(=N)N)NC(=O)[C@H](Cc3ccccc3)NC(=O)CNC(=O)[C@H](Cc3ccc(O)cc3)NC(=O)CNC(=O)[C@H](CCCNC(=N)N)NC(=O)[C@H](C)NC(=O)[C@H](CCCNC(=N)N)NC(=O)[C@H](Cc3ccccc3)NC(=O)[C@H](CO)NC(=O)[C@H](CC(C)C)NC(=O)[C@H](CCCNC(=N)N)NC(=O)[C@H](CCSC)NC(=O)[C@H](CO)NC(=O)[C@@H](N)CCCNC(=N)N)C(=O)O)C2=O)C1=O)C(=O)O (stereo partly drawn) [Peptide P3] (I: H-RSMRLSFRARGYGFRC-OH / II: H-RSMRLSFRARGYGFRC-OH; linker I:16-II:16 via X1; N-terminus and C-terminus assumed)
MIC100 C. albicans [2]: 20 µM (≈ 85.6 µg/mL)
release of the tested cytokines from PBMCs [3]: unable to induce te release of the tested cytokines; also recorded: unable to release significantly the tested cytokines
MIC100 MSSA [4]: 30 µM (≈ 128 µg/mL)
MIC100 MRSA [5]: 50 µM (≈ 214 µg/mL)

TLRGGE-RSMRLSFRARGYGFR
cleaved bond [6]: R-A, major
fragment found [6]: TLRGGE, major
cleaved bond [7]: R-A, major

CSCC[C@@H](NC(=O)[C@H](N)Cc1ccccc1)C(=O)N[C@H](CCCNC(=N)N)C(=O)N[C@H](CC(C)C)C(=O)N[C@H](CCCNC(=N)N)C(=O)N[C@H](Cc1ccc(O)cc1)C(=O)N[C@H](CCCNC(=N)N)C(=O)N[C@H](CO)C(=O)N[C@H](CO)C(=O)N[C@H](C)C(=O)N[C@H](Cc1ccccc1)C(=O)NCC(=O)NCC(=O)N[C@H](CCCNC(=N)N)C(=O)N[C@H](CCCNC(=N)N)C(=O)O [Control D, reference compound] (H-[dF][dM][dR][dL][dR][dY][dR][dS][dS][dA][dF]GG[dR][dR]-OH)
MIC (Citrobacter freundii): 128 µg/mL (≈ 68.8 µM)
MIC (Pseudomonas aeruginosa): > 128 µg/mL
MIC (Morganella morganii): > 128 µg/mL
MIC (Serratia marcescens): > 128 µg/mL
MIC (Candida albicans): 512 µg/mL (≈ 275 µM)
MIC (MRSA): > 128 µg/mL
MIC (MSSA): > 128 µg/mL

CSCC[C@@H](NC(=O)[C@@H](CO)NC(=O)[C@@H](CCCNC(=N)N)NC(=O)[C@H](CCC(=O)O)NC(=O)CNC(=O)CNC(=O)[C@H](CCCNC(=N)N)NC(=O)[C@H](CC(C)C)NC(=O)[C@@H](NC(=O)[C@H](Cc1ccc(O)c(O)c1)NC(=O)[C@H](CCCCN)NC(=O)[C@H](Cc1ccc(O)c(O)c1)NC(=O)[C@H](CCCCN)NC(=O)[C@@H](N)Cc1ccc(O)c(O)c1)[C@@H](C)O)C(=O)N[C@H](CCCNC(=N)N)C(=O)N[C@H](CC(C)C)C(=O)N[C@H](CO)C(=O)N[C@H](Cc1ccccc1)C(=O)N[C@H](CCCNC(=N)N)C(=O)N[C@H](C)C(=O)N[C@H](CCCNC(=N)N)C(=O)NCC(=O)N[C@H](Cc1ccc(O)cc1)C(=O)NCC(=O)N[C@H](Cc1ccccc1)C(=O)N[C@H](CCCNC(=N)N)C(=O)O [DOPA5T-(D)Ctl] (H-[Dopa]K[Dopa]K[Dopa]TLRGGE[dR][dS][dM][dR][dL][dS][dF][dR][dA][dR]G[dY]G[dF][dR]-OH)
IC50 ([4]; methicillin sensitive (, strain 49775, 24 h)): 35 µM

DOPA-K-DOPA-K-DOPA-TLRGGE-RSMRLSFRARGYGFR
cleaved bond [6]: E-R, major

RSMRLSFRARGYGFRMal-(12PEG)-MalRFGYGRARFSLRMSR [Peptide P4, dimeric form of Ctl with spacer of 12 PEG]
MIC100 MSSA [4]: > 100 µM

RSMRLSFRARGYGFRMal-(16PEG)-MalRFGYGRARFSLRMSR [Peptide P5, dimeric form of Ctl with spacer of 16 PEG]
MIC100 C. albicans [2]: 50 µM
MIC100 MSSA [4]: > 100 µM
MIC100 MRSA [5]: > 100 µM

RSMRLSFRARGYGFRMal-(46PEG)-MalRFGYGRARFSLRMSR [Peptide P6, dimeric form of Ctl with spacer of 46 PEG]
MIC100 MSSA [4]: > 100 µM
